The structures appear in SMILES notation. Bounds are passed on as bounds.

We go through one molecule from patent publication US11155523B2, “Biphenyl compound as CCR2/CCR5 receptor antagonist” (Medshine Discovery Inc., priority 2016, dated 2021).

For one series, the target named is T1, CCR2 (Homo sapiens, UniProt P41597).
T1 construct: expressed in transfected cells; host or cells: HEK293, clone C7, passage P6
In words: CCR2 in vitro test: intracellular calcium signal detected by FLIPR. The settings on record: HEK293 cells expressing CCR2, agonist MCP-1 at EC80, calcium signal. The series is classed as cell-based. An outline of the steps: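 Receptor-expressing cells loaded with Fluo-4 Direct and probenecid (2.5 mM final), then preincubated with compounds (11-point 1:3 series) before challenge at EC80 of agonist (MCP-1 for CCR2, RANTES for CCR5). FLIPR calcium max−min signal; IC50 fitted.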

Series [1] in a line: Comparative pharmacokinetics study in cynomolgus monkeys. The series is classed as in vivo. The settings on record: cynomolgus monkey. The source says: Experimental Example 3: Comparative Pharmacokinetics Study in Cynomolgus Monkeys
Male cynomolgus monkeys were used as the test animals in this study. The drug concentrations in plasma of the cynomolgus monkeys by intravenous or oral administration of test compound WX047 and reference compound at different time points were quantitatively determined by LC/MS/MS, which were used to evaluate the pharmacokinetic profile of the two test drugs in cynomolgus monkeys.
A clear solution of the test compound was injected into cynomolgus monkeys via t the cephalic or saphenous vein (overnight fasting, 2.5-7 kg), and the test compound was intragastrically administered to the cynomolgus monkeys (overnight fasting, 7-10 weeks old). Approximately 400 μL of blood was collected from the peripheral vein of the animals 0.0833, 0.25, 0.5, 1, 2, 4, 6, 8, 12 and 24 hours after administration, and transferred into an commercial centrifuge tube containing EDTA-K2*2H2O anticoagulation. The plasma was collected by centrifugation at 3000 g for 10 minutes at 4° C. The plasma concentration was determined by LC-MS/MS. The pharmacokinetic parameters were calculated by the non-compartment model linear logarithmic trapezoidal method using WinNonlin™ Version 6.3 (Pharsight, Mountain View, Calif.) pharmacokinetic software.

The next series addresses T2, CYP1A2 (Homo sapiens, UniProt P05177).
T2 construct: from tissue; host or cells: human liver microsomes
T2 sequence (P05177 1-516): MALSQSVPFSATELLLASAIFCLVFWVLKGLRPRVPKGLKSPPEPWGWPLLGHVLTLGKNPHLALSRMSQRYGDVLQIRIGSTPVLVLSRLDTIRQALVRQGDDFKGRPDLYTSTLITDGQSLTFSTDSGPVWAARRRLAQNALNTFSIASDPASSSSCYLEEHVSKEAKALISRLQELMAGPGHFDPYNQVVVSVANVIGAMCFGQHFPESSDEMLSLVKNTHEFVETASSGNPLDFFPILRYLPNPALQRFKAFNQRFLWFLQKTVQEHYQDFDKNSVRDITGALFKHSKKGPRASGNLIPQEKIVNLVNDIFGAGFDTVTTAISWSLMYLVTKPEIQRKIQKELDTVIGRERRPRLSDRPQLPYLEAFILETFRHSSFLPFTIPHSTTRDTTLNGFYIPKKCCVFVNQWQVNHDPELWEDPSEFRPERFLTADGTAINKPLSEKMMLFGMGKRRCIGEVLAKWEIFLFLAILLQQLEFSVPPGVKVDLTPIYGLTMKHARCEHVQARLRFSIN
Kind of series: Inhibition of human liver microsomal CYP1A2 (phenacetin probe). The series is classed as in vitro ADME. The settings on record: human liver microsomes. On the procedure: (§1) Experimental Example 4 Inhibition Effect on the Activity of Human Liver Microsomal Cytochrome P450 Isoezymes (CYP1A2, CYP2C9, CYP2C19, CYP2D6 and CYP3A4)
(§2) A total of 5 specific probe substrates for CYP's five isozymes, Phenacetin (CYP1A2), Diclofenac (CYP2C9), […] (S)-Mephenytoin, CYP2C19), Dextromethorphan (CYP2D6) and Midazolam (CYP3A4) were incubated with human liver microsomes and test compounds, respectively, and reduced nicotinamide adenine dinucleotide phosphate (NADPH) was added to initiate the reaction. After the reaction, the sample was processed and liquid chromatography tandem mass spectrometry (LC-MS/MS) was used to quantitatively detect the […] metabolites produced by the specific substrate, Acetaminophen and 4′-hydroxydiclofenac, 4′-hydroxymephenytoin, Dextrorphan and 1′-hydroxymidazolam, in order to calculate the corresponding half maximal inhibitory concentration (IC50).
A general note: Microsomes from liver hold many membrane-bound enzymes, among them those of drug oxidation.

Series [2] concerns human liver microsomal cytochrome P450 isoenzymes. In words: Inhibition of human liver microsomal cytochrome P450 isoenzymes, overall conclusion. Conditions: human liver microsomes. The series is classed as in vitro ADME. The method, then: as §1, §2
Setting [3] is: male, plasma, intravenous injection 1 mg/kg.

T1 sequence (P41597 whole entry, species assumed): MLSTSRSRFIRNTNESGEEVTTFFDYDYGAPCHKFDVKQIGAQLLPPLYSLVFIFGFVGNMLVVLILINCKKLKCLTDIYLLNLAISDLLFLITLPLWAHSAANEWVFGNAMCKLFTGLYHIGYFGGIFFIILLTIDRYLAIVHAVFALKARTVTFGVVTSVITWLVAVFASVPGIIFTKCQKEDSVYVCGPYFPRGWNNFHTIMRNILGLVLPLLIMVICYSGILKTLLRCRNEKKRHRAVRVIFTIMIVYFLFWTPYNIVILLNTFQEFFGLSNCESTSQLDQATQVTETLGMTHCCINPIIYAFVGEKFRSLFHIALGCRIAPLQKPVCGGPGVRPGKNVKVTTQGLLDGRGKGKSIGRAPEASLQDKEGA

`CCCCOCCOc1ccc(-c2ccc(OCC)c(/C=C/C(=O)Nc3ccc([S@+]([O-])Cc4c(C)ncn4CC)cc3)c2)cc1` [WX047]: the IC50 at CCR2 stood at 8.2 nM. The “Area Under a Curve (0-inf)” value in series [1] (intravenous injection 1 mg/kg) was 3.149 µM·h. In series [1] (oral 3 mg/kg), the “Area Under a Curve (0-inf/0-last)” value is 3.678 µM·h and the Peak time came to 2.0 h. In series [1] (oral, relative to Cenicriviroc), the “Oral plasma system exposure (AUC0-inf) as multiple of the reference compound” value is listed as 10.8 times. Further, the “Bioavailability as multiple of the reference compound” value in series [1] (relative to Cenicriviroc) was 7.6 times. In series [1] (setting [3]), this molecule showed a clearance of 9.11 mL/min/kg and a half-life of 1.66 h. In series [1] (male, plasma, oral 3 mg/kg vs intravenous 1 mg/kg), this molecule yielded a bioavailability of 38.9%. Also, at CYP1A2, the concentration for half-maximal inhibition (IC50) was more than 50000 nM. In addition, the “Risk of inhibiting isoenzymes of human liver microsomal cytochrome P450 (conclusion in words)” value in series [2] is “no risk on inhibiting five isoenzymes”.

Broadly, the IC50 is the point on the concentration scale where inhibition reaches its midpoint. What is called clearance is the volume of plasma or blood freed of the substance per unit of time. By half-life is commonly meant how long it takes for the measured level to halve. A higher half-life goes with slow loss. A word on the bioavailability: it is dose-corrected exposure relative to a reference, in per cent. A higher bioavailability goes with much systemic uptake.
